In patent US20250100996A1, “HETEROCYCLOALKYL AND HETEROARYL COMPOUNDS AND PHARMACEUTICAL COMPOSITIONS THAT MODULATE IKZF2” (Plexium, Inc., priority 2021, published 2025):

Columns and labels:
[1] = target: T1, human E3 ligase component cereblon (CRBN) (Homo sapiens, UniProt Q96SW2); test: Cereblon (CRBN) target engagement, NanoBRET TE Intracellular E3 Ligase Assay in transfected HEK-293T cells; conditions: read-out: CRBN Binding EC50
T1 construct: host or cells: HEK293T
Procedure, shortened: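 Tracer displacement was read as the 610/450 nm BRET signal after 2 h at 37° C with an 11-point dilution series, typically 10 μM to 100 pM. Live HEK-293T cells expressed NanoLuc fused N-terminal to human CRBN together with DDB1. IC50 was fitted with a four-parameter logistic model.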

[2] = target: T2, GSPT1 (Homo sapiens, UniProt P15170); test: GSPT1 reporter degradation assay (HEK293 hGSPT1 HiBiT-tagged cells); type: cell-based; conditions: 24 hour incubation
T2 construct: HiBiT-tagged cells were generated using CRISPR-Cas12a technology; endogenous in cells; host or cells: HEK293 (endogenous GSPT1 locus edited with HiBiT knock-in)
Protocol: HEK293_hGSPTl_HiBiT-tagged cells were generated using CRISPR-Cas12a technology. Briefly, ˜400,000 HEK293 cells were transiently co-transfected with precomplexed ribonuclear proteins (RNPs) consisting of 80 pmol of crRNA (IDT), 62 pmol of Cas12a protein (IDT), 3 μg of ssODN donor (IDT; Alt® modifications), 78 pmol of electroporation enhancer (IDT), and 200 ng of pMaxGFP (Lonza). The transfection was performed via nucleofection (Lonza, 4D-Nucleofector X-unit) using solution P3 and program CM-130 in a ([…]) cuvette. Five days post-nucleofection, cells were single-cell-sorted for GFP+(transfected) cells by FACs in 96-well plates and clonally selected. Clones were screened and verified for the desired modification via targeted deep sequencing using gene-specific primers with partial Illumina adapter overhangs as previously described. In brief, clonal cell pellets were harvested, lysed, and used to generate gene-specific amplicons with partial Illumina adapters in PCR #1. Amplicons were indexed in PCR #2 and pooled with other targeted amplicons for other loci to create sequence diversity. Additionally, 10% PhiX sequencing control V3 (Illumina) was added to the pooled amplicon library prior to running the sample on a Miseq Sequencer System (Illumina) to generate paired 2×250 bp reads. Samples were demultiplexed using the index sequences, fastq files were generated, and NGS analysis was performed using CRIS.py. Final clones were authenticated using the PowerPlex fusion system (Promega) and tested negative for mycoplasma by the MycoAlertTMPlus mycoplasma detection kit (Lonza).
Editing construct sequences and screening primers are outlined below (sequence from 5′ to 3′). hGSPT1Cas12acrRNA, CAGE635.GSPT1.g1: […]; CAGE635.g1.anti.ssODN: ttcctcacagtattgtgcagggtcatcaagaaaatgctta[…] CAGCCGCTCACgtcCttctctggaaccagtttcagaacttttccaattgcaatggtcttacctagaaatgaaattttaa (HiBiT tag and silent blocking modifications to prevent Cas12a recutting after integration are in upper case); CAGE635.hGSPT1.DS.F: […]; CAGE635.hGSPT1.DS.R: GTGAA GTAGGCTTCTGCAGTC.
The GSPT1 degradation assay was carried out by harvesting the HEK 293T reporter cell lines and resuspending the cells in media formulated for reduced background fluorescence (FluoroBrite; Thermo Fisher). The respective cell lines were seeded at a density of 8,000 cells/well into white-opaque 384-well optical grade assay tissue culture plates (Greiner 781080-20). The cells were incubated overnight at 37° C. to allow for attachment to the assay plate. Dilutions of the compounds were prepared in DMSO from 10 mM compound stocks. Test compounds were added in a 10-point dilution series (typically 10 μM to 100 pM) using a TECAN D300e Digital Dispenser with an upper limit of 0.5% final DMSO. Plates were centrifuged at 320×g for 2 minutes at room temperature, and subsequently incubated at 37° C.
After 24 hour incubation with the compounds, the plates were allowed to cool to room temperature for 10 minutes. 30 μL of HiBiT lytic buffer+1:50 HiBiT substrate Solution were added to each well. Plates were centrifuged at 320×g for 2 minutes at room temperature and then incubated with shaking at room temperature for 10 minutes covered with foil. Plates were read on a CLARIOstar microplate reader (BMG LabTech), measuring at 450 nm (donor emission) and 610 nm or 630 nm (acceptor emission). The DC50 values were determined by regression to best fit four-parameter logistic curves using GraphPad Prism.

[3] = target: T3, IKZF2 (Helios) (Homo sapiens, UniProt Q96SW2+Q9UKS7); test: IKZF2 reporter degradation assay (HEK 293T IKZF2-mNeonGreen reporter cell line); type: cell-based; conditions: HEK-293T, 24 h, @ 1 μM, HEK 293T IKZF2-mNeonGreen reporter, 24 hours incubation
T3 construct: Leu-Asp junction (codons ctcgac before the linker); mScarlet (behind P2A) (C, cleaved yes); expressed in transfected cells
Procedure, shortened: (§1)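 In reporter HEK 293T clones, the FITC exposure was 1000 ms for the IKZF2 line and 500 ms for the IKZF1 and IKZF3 lines. Imaging followed 24 h of compound treatment, and percent-positive scoring was fitted to a four-parameter logistic curve for DC50.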

[4] = target: T4, IKZF2 (Helios) (Homo sapiens, UniProt Q9UKS7); test: as above; type: cell-based; conditions: HEK 293T IKZF2-mNeonGreen reporter, 24 hours incubation
T4 construct: Leu-Asp junction (codons ctcgac before the linker); mScarlet (behind P2A) (C, cleaved yes); expressed in transfected cells
Procedure, shortened: as §1

[5] = target: T5, IKZF3 (Aiolos) (Homo sapiens, UniProt Q9UKT9); test: IKZF3 reporter degradation assay (HEK 293T IKZF3-mNeonGreen reporter cell line); type: cell-based; conditions: HEK 293T IKZF3-mNeonGreen reporter, 24 hours incubation
T5 construct: Leu-Asp junction (codons ctcgac before the linker); mScarlet (behind P2A) (C, cleaved yes); expressed in transfected cells
Procedure, shortened: as §1

[6] = target: T6, IKZF1 (Ikaros) (Homo sapiens, UniProt Q13422); test: IKZF1 reporter degradation assay (HEK 293T IKZF1-mNeonGreen reporter cell line); type: cell-based; conditions: HEK 293T IKZF1-mNeonGreen reporter, 24 hours incubation
T6 construct: mScarlet (behind P2A) (C, cleaved yes); expressed in transfected cells
Procedure, shortened: as §1

T6 sequence (Q96SW2 whole entry partner): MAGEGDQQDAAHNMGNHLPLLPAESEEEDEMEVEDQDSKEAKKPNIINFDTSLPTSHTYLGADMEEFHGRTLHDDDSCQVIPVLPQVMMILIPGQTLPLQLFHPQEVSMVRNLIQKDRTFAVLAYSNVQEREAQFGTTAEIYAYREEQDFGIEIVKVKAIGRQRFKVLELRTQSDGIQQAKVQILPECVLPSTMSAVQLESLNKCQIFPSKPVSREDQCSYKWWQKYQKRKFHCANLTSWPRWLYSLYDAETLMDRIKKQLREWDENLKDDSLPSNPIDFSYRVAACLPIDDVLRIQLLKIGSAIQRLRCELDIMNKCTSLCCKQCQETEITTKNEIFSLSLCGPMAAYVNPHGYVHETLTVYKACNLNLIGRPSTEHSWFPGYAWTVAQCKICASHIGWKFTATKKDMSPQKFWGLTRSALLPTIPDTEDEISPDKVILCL
T6 sequence (Q16531 whole entry partner): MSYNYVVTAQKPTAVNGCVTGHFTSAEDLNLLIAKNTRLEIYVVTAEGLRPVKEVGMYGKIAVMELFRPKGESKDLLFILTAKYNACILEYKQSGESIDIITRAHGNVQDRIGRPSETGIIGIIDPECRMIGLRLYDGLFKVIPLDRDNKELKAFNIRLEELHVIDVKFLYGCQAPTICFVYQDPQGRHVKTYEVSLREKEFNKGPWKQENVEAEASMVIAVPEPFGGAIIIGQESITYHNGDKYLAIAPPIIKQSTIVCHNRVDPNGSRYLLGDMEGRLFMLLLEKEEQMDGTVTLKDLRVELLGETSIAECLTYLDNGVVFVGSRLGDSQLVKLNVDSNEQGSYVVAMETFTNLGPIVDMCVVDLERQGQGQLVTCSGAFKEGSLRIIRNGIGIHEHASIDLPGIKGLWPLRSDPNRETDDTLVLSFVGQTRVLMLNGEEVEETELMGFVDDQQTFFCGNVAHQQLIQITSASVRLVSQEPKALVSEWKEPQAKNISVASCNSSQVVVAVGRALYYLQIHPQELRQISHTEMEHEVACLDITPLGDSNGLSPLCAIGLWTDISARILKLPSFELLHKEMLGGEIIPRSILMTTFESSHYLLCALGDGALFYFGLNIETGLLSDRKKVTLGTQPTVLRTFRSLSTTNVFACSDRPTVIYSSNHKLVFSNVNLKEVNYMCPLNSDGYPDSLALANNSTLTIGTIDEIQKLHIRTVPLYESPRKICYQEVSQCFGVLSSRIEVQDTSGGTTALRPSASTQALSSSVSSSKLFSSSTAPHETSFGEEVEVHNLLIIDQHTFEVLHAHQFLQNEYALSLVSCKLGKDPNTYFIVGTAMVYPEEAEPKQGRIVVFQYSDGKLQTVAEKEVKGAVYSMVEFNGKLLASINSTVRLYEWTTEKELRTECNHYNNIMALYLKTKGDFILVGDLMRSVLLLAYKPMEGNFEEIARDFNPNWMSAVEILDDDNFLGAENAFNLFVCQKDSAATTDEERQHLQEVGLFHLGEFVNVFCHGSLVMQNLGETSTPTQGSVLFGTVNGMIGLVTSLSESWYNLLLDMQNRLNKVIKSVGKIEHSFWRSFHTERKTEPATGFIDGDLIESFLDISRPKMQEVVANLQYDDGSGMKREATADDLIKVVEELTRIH
T6 sequence (Q13422 whole entry): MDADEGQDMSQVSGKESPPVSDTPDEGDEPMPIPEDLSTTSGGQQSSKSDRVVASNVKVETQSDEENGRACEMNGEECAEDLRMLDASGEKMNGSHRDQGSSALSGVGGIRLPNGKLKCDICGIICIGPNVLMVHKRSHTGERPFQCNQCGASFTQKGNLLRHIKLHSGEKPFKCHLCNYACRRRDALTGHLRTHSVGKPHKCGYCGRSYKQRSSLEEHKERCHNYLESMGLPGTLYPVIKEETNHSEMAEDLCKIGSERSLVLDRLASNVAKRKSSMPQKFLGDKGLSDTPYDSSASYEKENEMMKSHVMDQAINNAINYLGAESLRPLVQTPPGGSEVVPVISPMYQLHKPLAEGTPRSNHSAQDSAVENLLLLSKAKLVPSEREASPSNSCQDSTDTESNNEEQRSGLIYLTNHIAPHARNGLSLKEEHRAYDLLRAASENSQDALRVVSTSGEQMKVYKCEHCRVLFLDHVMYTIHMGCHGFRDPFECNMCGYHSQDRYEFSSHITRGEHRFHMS
T5 sequence (Q96SW2 whole entry partner): as the sequence (Q96SW2 whole entry partner) above
T5 sequence (Q16531 whole entry partner): as the sequence (Q16531 whole entry partner) above
T5 sequence (Q9UKT9 whole entry): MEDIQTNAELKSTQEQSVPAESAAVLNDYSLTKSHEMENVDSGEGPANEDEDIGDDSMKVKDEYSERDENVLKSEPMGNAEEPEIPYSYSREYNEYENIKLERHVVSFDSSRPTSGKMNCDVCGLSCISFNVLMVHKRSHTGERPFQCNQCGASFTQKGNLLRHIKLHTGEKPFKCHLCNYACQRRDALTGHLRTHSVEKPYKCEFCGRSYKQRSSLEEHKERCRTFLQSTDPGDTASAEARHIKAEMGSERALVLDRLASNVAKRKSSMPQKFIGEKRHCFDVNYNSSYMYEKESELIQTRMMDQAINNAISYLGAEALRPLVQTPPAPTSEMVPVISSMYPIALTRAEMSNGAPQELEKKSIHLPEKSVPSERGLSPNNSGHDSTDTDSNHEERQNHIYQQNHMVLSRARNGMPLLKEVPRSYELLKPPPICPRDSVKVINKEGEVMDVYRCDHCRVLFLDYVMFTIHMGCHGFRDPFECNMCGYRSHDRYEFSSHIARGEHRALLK
T1 sequence (Q96SW2 whole entry): as the sequence (Q96SW2 whole entry partner) above
T1 sequence (Q16531 whole entry partner): as the sequence (Q16531 whole entry partner) above
T3 sequence (Q9UKS7 whole entry): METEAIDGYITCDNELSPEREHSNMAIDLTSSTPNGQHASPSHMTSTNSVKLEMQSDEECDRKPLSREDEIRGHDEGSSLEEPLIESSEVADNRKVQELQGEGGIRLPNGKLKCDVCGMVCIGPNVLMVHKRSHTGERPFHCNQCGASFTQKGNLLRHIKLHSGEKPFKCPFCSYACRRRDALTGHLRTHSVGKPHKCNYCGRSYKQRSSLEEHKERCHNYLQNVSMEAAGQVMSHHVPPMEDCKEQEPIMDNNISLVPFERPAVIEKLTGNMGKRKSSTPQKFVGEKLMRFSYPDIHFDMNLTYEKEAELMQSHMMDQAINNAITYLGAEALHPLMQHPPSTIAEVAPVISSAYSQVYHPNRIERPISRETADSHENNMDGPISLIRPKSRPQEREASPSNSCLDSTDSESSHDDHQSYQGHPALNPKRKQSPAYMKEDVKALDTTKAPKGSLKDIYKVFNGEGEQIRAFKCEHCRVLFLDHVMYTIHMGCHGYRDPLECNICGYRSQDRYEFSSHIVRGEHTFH
T3 sequence (Q96SW2 whole entry): as the sequence (Q96SW2 whole entry partner) above
T3 sequence (Q16531 whole entry partner): as the sequence (Q16531 whole entry partner) above
T4 sequence (Q9UKS7 whole entry): as the sequence (Q9UKS7 whole entry) above
T4 sequence (Q96SW2 whole entry, further chain): as the sequence (Q96SW2 whole entry partner) above
T4 sequence (Q16531 whole entry partner): as the sequence (Q16531 whole entry partner) above
T2 sequence (Q96SW2 whole entry partner): as the sequence (Q96SW2 whole entry partner) above
T2 sequence (Q16531 whole entry partner): as the sequence (Q16531 whole entry partner) above
T2 sequence (P15170 whole entry): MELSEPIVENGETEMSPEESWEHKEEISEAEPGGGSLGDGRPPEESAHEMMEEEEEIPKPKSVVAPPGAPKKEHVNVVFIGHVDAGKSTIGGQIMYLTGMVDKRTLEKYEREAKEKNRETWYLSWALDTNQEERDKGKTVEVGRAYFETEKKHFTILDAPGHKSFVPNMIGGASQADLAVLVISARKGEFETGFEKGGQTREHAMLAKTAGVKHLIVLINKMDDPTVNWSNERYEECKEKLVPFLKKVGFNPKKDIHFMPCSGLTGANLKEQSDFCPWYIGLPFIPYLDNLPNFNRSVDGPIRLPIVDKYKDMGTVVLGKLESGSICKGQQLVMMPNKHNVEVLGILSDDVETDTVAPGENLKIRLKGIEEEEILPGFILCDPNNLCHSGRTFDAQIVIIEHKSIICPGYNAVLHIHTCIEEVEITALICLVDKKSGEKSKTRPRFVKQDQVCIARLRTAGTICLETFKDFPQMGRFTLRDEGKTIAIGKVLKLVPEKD

EC50 [1]	DC50 [2]	inhibition at 1 µM [3]	DC50 [4]	DC50 [5]	inhibition at 1 µM ([5]; HEK-293T, 24 h, @ 1 μM)	DC50 [6]	SMILES
79 nM	> 30000 nM						Cc1cnc(C2CN([C@H]3CCCC3Oc3ccc4c(c3)CN(C3CCC(=O)NC3=O)C4=O)C2)o1 (mixture of isomers) [Compound 151-B, Rac-3-(5-(((trans)-2-(3-(5-methyloxazol-2-yl)azetidin-1-yl)cyclopentyl)oxy)-1-oxoisoindolin-2-yl)piperidine-2,6-dione]
	> 30000 nM						O=C1CCC(N2Cc3cc(OC4CCCCC4N4CC(C(=O)N5CCCCC5)C4)ccc3C2=O)C(=O)N1 (single isomer, unassigned) [Compound 23-A, 3-(1-oxo-5-((2-(3-(piperidine-1-carbonyl)azetidin-1-yl)cyclohexyl)oxy)isoindolin-2-yl)piperidine-2,6-dione]
17 nM		79.8%	7 nM	283 nM	26.6%	> 30000 nM	O=C1CCC(N2Cc3cc(O[C@@H]4CCC[C@@H]4N4CC(c5ccnc6ccccc56)C4)ccc3C2=O)C(=O)N1 (stereo partly drawn) [Compound 194-B, 3-(1-oxo-5-(((1R,2S)-2-(3-(quinolin-4-yl)azetidin-1-yl)cyclopentyl)oxy)isoindolin-2-yl)piperidine-2,6-dione]
10 nM		72.3%	11 nM	> 30000 nM		> 30000 nM	Cc1cnccc1C1CN(C2CCCCC2Oc2ccc3c(c2)CN(C2CCC(=O)NC2=O)C3=O)C1 (stereo not drawn) [Compound 198-B, 3-(5-((2-(3-(3-methylpyridin-4-yl)azetidin-1-yl)cyclohexyl)oxy)-1-oxoisoindolin-2-yl)piperidine-2,6-dione]
21 nM		75%	14 nM	> 30000 nM		> 30000 nM	O=C1CCC(N2Cc3cc(OC4CCCCC4N4CC(c5ccnc6[nH]ccc56)C4)ccc3C2=O)C(=O)N1 (stereo not drawn) [Compound 199-B, 3-(5-((2-(3-(1H-pyrrolo[2,3-b]pyridin-4-yl)azetidin-1-yl)cyclohexyl)oxy)-1-oxoisoindolin-2-yl)piperidine-2,6-dione]
20 nM		25.1%	130 nM	> 30000 nM		> 30000 nM	O=C1CCC(N2Cc3cc(OC4CCCC4N4CC(c5cnc6ccccc6n5)C4)ccc3C2=O)C(=O)N1 (stereo not drawn) [Compound 203-B, 3-(1-oxo-5-((2-(3-(quinoxalin-2-yl)azetidin-1-yl)cyclopentyl)oxy)isoindolin-2-yl)piperidine-2,6-dione]
37 nM		75.4%	22 nM	> 30000 nM		> 30000 nM	O=C1CCC(N2Cc3cc(O[C@H]4CCCC[C@@H]4N4CC(c5ccc6[nH]ncc6c5)C4)ccc3C2=O)C(=O)N1 (stereo partly drawn) [Compound 204-B, 3-(5-(((1S,2S)-2-(3-(1H-indazol-5-yl)azetidin-1-yl)cyclohexyl)oxy)-1-oxoisoindolin-2-yl)piperidine-2,6-dione]
28 nM		79.3%	64 nM	> 30000 nM		> 30000 nM	O=C1CCC(N2Cc3cc(OC4CCCCC4N4CC(c5cccc6[nH]ncc56)C4)ccc3C2=O)C(=O)N1 (stereo not drawn) [Compound 211-B, 3-(5-((2-(3-(2H-indazol-4-yl)azetidin-1-yl)cyclohexyl)oxy)-1-oxoisoindolin-2-yl)piperidine-2,6-dione]
57 nM		20.3%	425 nM	> 30000 nM		> 30000 nM	O=C1CCC(N2Cc3cc(OC4CCCCC4N4CC(c5cncnc5)C4)ccc3C2=O)C(=O)N1 (stereo not drawn) [Compound 212-B, 3-(1-oxo-5-((2-(3-(pyrimidin-5-yl)azetidin-1-yl)cyclohexyl)oxy)isoindolin-2-yl)piperidine-2,6-dione]
